This note sets out measurements from paper PMC11428593 (Antibiotics, 2024).

Molecules are shown by their SMILES. In brackets after ≈: the same amount, converted by molar mass. Entries after “also recorded” stand apart in the source; their conditions may differ.

One assay deals with MRSA ATCC BAA-44. Kind of assay: MIC by broth microdilution (CLSI). The class given is cell-based. The note with it: Staphylococcus aureus, MHB, 37 °C, 16 h. From the text: (§1) To assess the impact of the nitrogen position in our newly synthesized anaephene derivates, we analyzed their antimicrobial activities against various S. aureus strains, including ATCC 25,923 and the two methicillin-resistant S. aureus (MRSA) strains ATCC 33,591 and ATCC BAA-44. […] We determined the minimum inhibitory concentrations (MIC) of each of our compounds against the different bacterial strains by broth microdilution following the CLSI guidelines. As expected, all five compounds tested were completely ineffective against the Gram-negative P. aeruginosa strain ATCC 27,853 (Table 1).
(§2) The MIC values of the alkyl pyridinol derivatives against the S. aureus strain ATCC 25923, MRSA strains ATCC 33591, ATCC BAA-44, and USA300LAC, as well as the P. aeruginosa strain ATCC 27853, were determined by following the CLSI guidelines for the broth microdilution antibiotic sensitivity testing protocol. In brief, the overnight cultures were diluted into Mueller Hinton Broth (MHB) to a final inoculum concentration of 5 × 10^5 CFU/mL (O.D600nm = 0.00001) and dispensed into a 96-well polystyrene plate (Alkali Scientific, Fort Lauderdale, FL, USA). Alkyl pyridine compounds were diluted into inoculated MHB to the indicated concentrations from stock solutions that would allow for DMSO concentrations below 5%, resulting in a total volume of 200 μL per well. The plates were subsequently incubated at 37 °C for 16 h at 300 rpm. The MIC values, which are defined as the lowest compound concentration that inhibited growth, were determined from three biological replicates.
A general note: Dilution methods test growth across graded concentrations, often in twofold steps.

The next assay has as its system S. aureus ATCC 25923. Kind of assay: MIC by broth microdilution (CLSI). Type of assay: cell-based. The note with it: Staphylococcus aureus, ATCC25923, MHB, 37 °C, 16 h.
From the text: as §1, §2

The next assay relates to MRSA ATCC 33591. Kind of assay: MIC by broth microdilution (CLSI). The class given is cell-based. Particulars: Staphylococcus aureus, MHB, 37 °C, 16 h.
From the text: as §1, §2

The test system of the next assay is P. aeruginosa ATCC 27853. The assay can be described thus: MIC by broth microdilution (CLSI). Type of assay: cell-based. Particulars: Pseudomonas aeruginosa, ATCC27853, MHB, 37 °C, 16 h.
From the text: as §1, §2

The test system of assay [1] is S. aureus strain USA300LAC. Kind of assay: Growth curve-based assay of exponentially growing cells. The class given is cell-based, Staphylococcus aureus. As for the experimental part: Considering the divergent antimicrobial effects of our new compounds, we proceeded to assess the impact of JC-01-072 and JC-01-074 on the growth of exponentially growing USA300LAC cells. We performed growth-curve-based assays of the USA300LAC cultures that were either left untreated or treated with 4–16 μg/mL of the alkyl pyridinol compound once they reached the mid-log phase (OD600nm~0.2–0.3).
Figure 2 Impact of alkyl pyridinol exposure on exponentially growing S. aureus. An overnight culture of the S. aureus strain USA300LAC was diluted into fresh TSB and grown to mid-exponential phase (OD600nm = 0.2–0.3) prior to treatment with 4–16 µg/mL JC-01-072 (A) and JC-01-074 (B). Optical densities were measured at 600 nm at 10 min intervals for 16–18 h (n = 3, ±S.D.).
The overnight USA300LAC cultures were diluted into fresh TSB media to an O.D.600nm = 0.001 and incubated at 37 °C under shaking conditions (300 rpm) until an O.D.600nm of 0.2–0.3 (early log phase) was reached. The cultures were subsequently transferred to a 96-well polystyrene plate (Alkali Scientific, Fort Lauderdale, FL, USA), following which DMSO (control) or alkyl pyridine compounds were added at the indicated final concentrations. The cells were then incubated at 37 °C for 16 h at 300 rpm, and the O.D.600nm measurements were taken every 10 min for 16 h in a Tecan Infinite 200 plate reader (Tecan, Morgan Hill, CA, USA).

In assay [2] the test system is S. aureus strain USA300LAC biofilm. The assay can be described thus: Inhibition of biofilm formation (crystal violet). The class given is cell-based, Staphylococcus aureus. As for the experimental part:
(§3) The establishment of a bacterial biofilm usually begins with pathogen attachment to biotic and abiotic surfaces, and S. aureus is notorious for its ability to form biofilms on surfaces, such as implants and catheters, which presents a unique treatment challenge.
(§4) Overnight cultures of S. aureus strain USA300LAC were diluted into fresh TSB to an OD600nm = 0.001 and incubated aerobically at 37 °C until the mid-log phase. (A) To detect effects on biofilm formation, cultures were diluted to an OD600nm = 0.0001 in the presence and absence of JC-01-074 and vancomycin at concentrations of 0.5–4× MIC, respectively. (B) To detect effects on biofilm eradication, cultures were diluted to an OD600nm = 0.0001 and incubated under static conditions for 24 h, after which planktonic cells were removed, and the preformed biofilms were washed twice with PBS. […] Biofilm mass was quantified after 20 h via crystal violet staining. One-way ANOVA, Dunnett’s multiple-comparison test (* p < 0.05, ** p < 0.01); (n = 3, ±S.D.).
The overnight USA300LAC cultures were diluted 1000-fold into the fresh TSB media and incubated under shaking conditions at 37 °C until the mid-log phase. The cultures were subsequently diluted to approximately 4 × 10^6 CFU/mL and dispended into 96-well polystyrene plates (Alkali Scientific, Fort Lauderdale, FL, USA) containing DMSO (control), vancomycin (0.5–4× MIC), or the indicated alkyl pyridinol compounds (0.5–4× MIC) and sealed with a breath-easy membrane (Fisherbrand, Waltham, MA, USA). The peripheral wells were filled with PBS to limit evaporation. The plates were incubated without agitation at 37 °C for 24 h, following which the planktonic cells were removed. The biofilms were washed twice with PBS, stained with 0.1% crystal violet (CV) for 15 min, and washed again twice with PBS to remove the unbound CV dye. CV bound to biofilm cells was extracted with 30% (v/v) glacial acetic acid, and the O.D.595nm was determined.

Assay [3] relates to S. aureus strain USA300LAC established biofilm. The assay can be described thus: Biofilm eradication assay (crystal violet). The class given is cell-based, Staphylococcus aureus. The note with it: at or below 4× MIC, 24 h, in words. As for the experimental part: as §3, §4
The overnight USA300LAC cultures were diluted 1000-fold into the TSB media and incubated under shaking conditions at 37 °C until the mid-log phase. […] After 24 h of incubation, biofilm eradication was assessed via CV staining at 595 nm in a Tecan 200 Infinite Pro microplate reader (Tecan, Morgan Hill, CA, USA).

In the case of `CCCCCCCCCC#Cc1cncc(O)c1` [JC-01-072], the minimal inhibitory concentration (MIC) (in general, the least concentration at which growth counts as inhibited) was 4 µg/mL (≈ 16.3 µM) in the assay on MRSA ATCC BAA-44, 4 µg/mL (≈ 16.3 µM) against S. aureus ATCC 25923, 4 µg/mL (≈ 16.3 µM) in the assay on MRSA ATCC 33591 and above 128 µg/mL in the assay with P. aeruginosa ATCC 27853. Further, the “effect on growth of mid-log USA300LAC cells” value in assay [1] (4–16 μg/mL, added at OD600nm ~0.2–0.3) is “little to no effects”.
Take `CCCCCCCCCC#Cc1cccc(O)n1` [JC-01-074]: the MIC is 16 µg/mL (≈ 65.2 µM) against MRSA ATCC BAA-44, 16 µg/mL (≈ 65.2 µM) in the assay on S. aureus ATCC 25923, 16 µg/mL (≈ 65.2 µM) against MRSA ATCC 33591 and above 128 µg/mL against P. aeruginosa ATCC 27853. For the same compound, in assay [1] (0.5× MIC, mid-log USA300LAC), the delay of growth lay within 6 to 8 h. Moreover, in assay [1] (1× MIC, mid-log USA300LAC), the “effect on growth at 1× MIC” value is given as “total growth arrest”. Moreover, in assay [2] (0.5–4× MIC, dose-dependent), the “reduction of biofilm formation” value is on record as 60–70%. Further, the “inhibition of biofilm formation” value in assay [2] (up to 4× MIC, in words) was “very potent in inhibiting their formation”. In assay [3], the “eradication of established biofilms” value was “has no effect once biofilms have been established; also recorded: no significant effects on the already established biofilms”.
